Values of other authors as cited in publication PMC6151961 (Journal of Enzyme Inhibition and Medicinal Chemistry, 2018).
Where two headings read alike, the source gives them in different places.

Biological target: CA IX (Homo sapiens, UniProt Q16790)
Conditions: cited from earlier work
[1] = library compounds (IDs A…, B…), values equal log10 of Ki in nM, ref ChEMBL and BindingDB
[2] = observed Ki of library compounds (IDs A…, B…), ref ChEMBL and BindingDB, read-out: Ki
[3] = experimental pKi towards CA IX, library compounds, ref ChEMB database (ID A), BindingDB (ID B)
[4] = observed Ki towards CA IX, library compounds, ref ChEMB database (ID A), BindingDB (ID B), read-out: Ki
[5] = library compounds (IDs A…, B…), observed Ki towards CA IX, ref ChEMBL and BindingDB, read-out: Ki
[6] = library compounds (IDs A..., B...), values equal log10 of Ki in nM, ref ChEMBL, BindingDB
[7] = observed Ki of library compounds (IDs A..., B...), ref ChEMBL, BindingDB, read-out: Ki
[8] = library compounds (IDs A…, B…) of Table S4, ref ChEMBL and BindingDB, read-out: Ki

| Compound | log10 of Ki in nM [1] | log10 of Ki in nM | Ki (read-out: Ki) [nM] | further results |
| --- | --- | --- | --- | --- |
| CC1=CC(c2ccccc2)C=C(C)N1CCc1ccc(S(N)(=O)=O)cc1 [B0111] | 0.778 | – | – | Ki [2]: 6 nM |
| Cn1nc(S(N)(=O)=O)s/c1=N/C(=O)c1c(F)c(F)cc(F)c1F [B0221] | – | 1.021 | 10.5 | – |
| NS(=O)(=O)c1ccc(CC/N=C\c2ccc(-c3ccccn3)cc2)cc1 [A1025] | – | – | – | log10 of Ki in nM [3]: 1.446; Ki [4]: 27.9 nM |
| CC(=O)OC[C@@H]1O[C@H](O[C@@H]2[C@@H](OC(C)=O)[C@H](OC(C)=O)[C@H](n3cc(COC(=O)c4ccc(S(N)(=O)=O)cc4)nn3)O[C@@H]2COC(C)=O)[C@H](OC(C)=O)[C@H](OC(C)=O)[C@H]1OC(C)=O [B0633] | – | 2.114 | 130 | – |
| CC(=O)OC[C@@H]1O[C@@H](SCc2cn(-c3ccc(S(N)(=O)=O)cc3)nn2)[C@H](OC(C)=O)[C@@H](OC(C)=O)[C@@H]1OC(C)=O [B0180] | – | 0.934 | 8.6 | – |
| CC(=O)N1N=C(c2ccc(C)cc2)C[C@H]1c1c(C)nn(-c2ccc(S(N)(=O)=O)cc2)c1Cl [A1383] | 1.827 | – | – | Ki [5]: 67.1 nM |
| CC(=O)CN1C(=O)C=C(C)OS1(=O)=O [A2477] | 4.301 | – | – | Ki [5]: 20000 nM |
| COc1ccc2c(c1)CCN(S(N)(=O)=O)[C@H]2c1ccccc1 [A1457] | 1.892 | – | – | Ki [5]: 78 nM |
| CC(=O)OC[C@@H]1O[C@@H](NS(N)(=O)=O)CC[C@H]1OC(C)=O [B0190] | 0.954 | – | – | Ki [2]: 9 nM |
| Cc1cc(C)o/c(=N\O)c1 [B0259] | – | – | – | log10 of Ki in nM [6]: 1.204; Ki [7]: 16 nM |
| CC1=C[C@H](c2ccccc2)C=C(c2ccccc2)N1c1ccc(S(=O)(=O)Nc2nnc(S(N)(=O)=O)s2)cc1 [B0314] | 1.380 | – | – | Ki [2]: 24 nM |
| CC/C(=N/Nc1ccc([N+](=O)[O-])cc1)Sc1cc(Cl)c(C)cc1S(N)(=O)=O [A2453] | 4.000 | – | – | Ki [5]: 10000 nM |
| Cc1ccc(-c2nn(-c3ccc(S(N)(=O)=O)cc3)cc2/C=N/Nc2nc(-c3cc4cc(Cl)ccc4oc3=O)cs2)cc1 [B0318] | – | 1.380 | 24 | – |
| CC(=O)OC[C@@H]1O[C@@H](S(=O)(=O)Cc2nnn(-c3ccc(S(N)(=O)=O)cc3)c2I)[C@H](OC(C)=O)[C@@H](OC(C)=O)[C@@H]1OC(C)=O [B0586] | – | 1.987 | 97 | – |
| CC1(C)CC(NC(=S)Nc2ccc(S(N)(=O)=O)cc2)CC(C)(C)N1O [A1198] | 1.613 | – | – | Ki [5]: 41 nM |
| CC(=O)Nc1ccc(S(=O)(=O)NC[C@H](C)F)cc1 [B0810] | – | – | – | log10 of Ki in nM [3]: 3.643; Ki [4]: 4400 nM |
| Cc1cc(S(N)(=O)=O)c(S/C(=N\Nc2ccc([N+](=O)[O-])cc2)c2ccccc2)cc1Cl [A2454] | 4.000 | – | – | Ki [8]: 10000 nM |
| NS(=O)(=O)c1ccc(-c2cn([C@@H]3O[C@@H](CO)[C@H](O)[C@@H]3O)nn2)cc1 [B0623] | – | 2.083 | 121 | – |
| CC1=C[C@@H](C)C(C)=C(C)N1Cc1ccc(S(N)(=O)=O)cc1 [B0397] | 1.544 | – | – | Ki [2]: 35 nM |
| CCCN(CCC)S(=O)(=O)c1ccc(C(=O)N[C@H](CS)C(N)=O)cc1 [B0344] | 1.447 | – | – | Ki [8]: 28 nM |

| Compound | log10 of Ki in nM [1] | log10 of Ki in nM | Ki (read-out: Ki) [nM] | further results |
| --- | --- | --- | --- | --- |
| O=S(=O)(NO)N[C@H]1C=C[C@H](O)[C@@H](CO)O1 [A0589] | – | 0.954 | 9 | – |
| NS(=O)(=O)c1ccc(NC2=NC(=O)/C(=C\c3coc4ccccc4c3=O)S2)cc1 [B0247] | 1.146 | – | – | Ki [5]: 14 nM |
| CC1=CC(C)C=C(C)N1CCc1ccccc1-c1ccccc1 [B0751] | 2.851 | – | – | Ki [8]: 710 nM |
| O=C(Cc1ccccc1Br)Oc1ccc2c(c1)OS(=O)(=O)CC2 [A2452] | – | – | – | log10 of Ki in nM [3]: 4.000; Ki [4]: 10000 nM |
| Cc1cc(=O)oc2cc(O[C@H]3O[C@@H](C)[C@H](O)[C@H](O)[C@H]3O)ccc12 [B0671] | – | 2.303 | 201 | – |
| NS(=O)(=O)c1ccc(CCN2C(c3ccccc3)=CCC=C2c2ccccc2)cc1 [B0533] | – | – | – | log10 of Ki in nM [3]: 1.908; Ki [4]: 81 nM |
| CCCN(CCC)S(=O)(=O)c1ccc(C(=O)N[C@H](CO)C(=O)O)cc1 [B0340] | – | – | – | log10 of Ki in nM [3]: 1.431; Ki [4]: 27 nM |
| Cc1cc(C)c2nc(S)n(-c3ccc(S(N)(=O)=O)cc3)c(=O)c2c1 [B0272] | – | – | – | log10 of Ki in nM [6]: 1.255; Ki [7]: 18 nM |
| C[C@]12CC[C@H]3[C@@H]([C@H]1CCC2=O)[C@@H](O)C=C1C[C@@H](OS(N)(=O)=O)CC[C@]13C [B0490] | – | 1.813 | – | Ki: 65 nM |
| CCO[C@H]1Oc2ccccc2C(=O)[C@@H]1/C=N\c1ccc(S(=O)(=O)Nc2nccs2)cc1 [B0283] | 1.301 | – | – | Ki [8]: 20 nM |
| CC(=O)OC[C@@H]1O[C@H](NS(=O)(=O)NO)C=C[C@H]1OC(C)=O [B0526] | – | 1.898 | 79 | – |
| NS(=O)(=O)c1ccc(OC2=NON(O)[C@@H]2S(=O)(=O)c2ccccc2)cc1 [A0390] | 0.806 | – | – | Ki [5]: 6.4 nM |
| NS(=O)(=O)c1ccc(-n2cc(CO[C@H]3O[C@H](CO)[C@H](O[C@H]4O[C@H](CO)[C@@H](O)[C@@H](O)[C@H]4O)[C@@H](O)[C@@H]3O)nn2)cc1 [B0542] | – | 1.924 | 84 | – |
| COc1ccc(-c2nn(-c3ccc(S(N)(=O)=O)cc3)cc2/C=N/Nc2nc(-c3cc4cc(Br)ccc4oc3=O)cs2)cc1 [B0286] | 1.301 | – | – | Ki [5]: 20 nM |
| COc1ccc2c(c1)CCN(S(N)(=O)=O)[C@H]2c1ccc(N)cc1 [A0718] | 1.079 | – | – | Ki [8]: 12 nM |
| COc1ccc2c(c1)CCN(S(N)(=O)=O)[C@H]2c1ccc(S(N)(=O)=O)cc1 [A0401] | – | 0.813 | 6.5 | – |
| NS(=O)(=O)c1cc(-c2nnc(-c3ccccc3)s2)c(Cl)cc1Cl [B0246] | 1.146 | – | – | Ki [5]: 14 nM |
| N#Cc1ccc(-c2cs/c(=N\c3ccc(S(N)(=O)=O)cc3)n2C2CCCCC2)cc1 [B0361] | 1.477 | – | – | Ki [2]: 30 nM |
| NS(=O)(=O)c1ccc([C@H]2C(Oc3ccccc3)=NON2O)cc1 [A1359] | 1.806 | – | – | Ki [5]: 63.9 nM |
| Cc1ccc2nc(S)n(-c3ccc(S(N)(=O)=O)cc3)c(=O)c2c1 [B0260] | 1.204 | – | – | Ki [8]: 16 nM |

| Compound | log10 of Ki in nM [1] | log10 of Ki in nM | Ki (read-out: Ki) [nM] | further results |
| --- | --- | --- | --- | --- |
| CC1(C)O[C@H]2[C@H](CO[C@]3(CNC(=S)Nc4ccc(S(N)(=O)=O)cc4F)OC(C)(C)O[C@H]23)O1 [B0608] | – | 2.041 | 110 | – |
| NS(=O)(=O)c1ccc(CNC(=S)Nc2ccc(C3c4ccc(O)cc4Oc4cc(O)ccc43)c(C(=O)O)c2)cc1 [B0334] | 1.415 | – | – | Ki [5]: 26 nM |
| CC1C=C(C(C)C)N(Cc2ccc(S(N)(=O)=O)cc2)C(C(C)C)=C1 [B0461] | 1.732 | – | – | Ki [5]: 54 nM |
| COc1cc2c(cc1OC)[C@@H](c1ccc([N+](=O)[O-])cc1)N(S(N)(=O)=O)CC2 [B0740] | 2.681 | – | – | Ki [2]: 480 nM |
| NS(=O)(=O)c1ccc(-n2cc(CS(=O)(=O)[C@@H]3O[C@@H](CO)[C@H](O)[C@@H](O)[C@H]3O)nn2)cc1 [B0162] | – | 0.908 | 8.1 | – |
| CC(=O)OC[C@@H]1O[C@H](SNCCc2ccc(S(N)(=O)=O)cc2)[C@@H](OC(C)=O)[C@H](OC(C)=O)[C@@H]1OC(C)=O [B0585] | – | 1.987 | 97 | – |
| NS(=O)(=O)c1ccc([C@H]2c3ccc(O)cc3CCN2S(N)(=O)=O)cc1 [A0504, reference compound] | – | 0.898 | 7.9 | – |
| NS(=O)(=O)c1ccc(-n2cc(/C=N/Nc3nc(-c4cc5cc(Br)ccc5oc4=O)cs3)c(-c3ccc(Cl)cc3)n2)cc1 [B0302] | 1.362 | – | – | Ki [2]: 23 nM |
| NS(=O)(=O)c1ccc(N[C@H]2SC[C@@H](c3ccc([N+](=O)[O-])cc3)N2C2CCCCC2)cc1 [B0353] | 1.462 | – | – | Ki [8]: 29 nM |
| CCOc1ccc(S(=O)(=O)NCCO)cc1-c1nnc2c(n1)c(C)nn2-c1ccc(C)cc1 [B0321] | – | – | – | Ki [7]: 25 nM |
| NS(=O)(=O)c1ccc(CCNS(=O)(=O)[C@@H]2O[C@@H](C(=O)O)[C@@H](O)[C@@H](O)[C@@H]2O)cc1 [B0584] | 1.982 | – | – | Ki [8]: 96 nM |
| CC1(C)O[C@@H]2O[C@H]([C@@H]3COC(C)(C)O3)[C@@H](OS(N)(=O)=O)[C@@H]2O1 [B0417] | – | 1.591 | 39 | – |
| CC[C@@H](Sc1nc(-c2cccc(OC)c2)c(C#N)c(=O)[nH]1)C(=O)Nc1ccc(S(N)(=O)=O)cc1 [A0953] | 1.380 | – | – | Ki [2]: 24 nM |
| Cc1ccc(-c2cnc(C(=O)N3CCCC3)o2)cc1S(N)(=O)=O [B0431] | – | – | – | Ki [7]: 43 nM |
| CN1N[C@@H](S(N)(=O)=O)S[C@H]1NC(=O)c1c(F)c(F)c(F)c(F)c1F [B0350] | – | – | – | log10 of Ki in nM [6]: 1.462; Ki [7]: 29 nM |
| C[C@H](Nc1nc(NCc2ccc(S(N)(=O)=O)cc2)nc(N[C@@H](C)C(=O)O)n1)C(=O)O [B0173] | – | 0.929 | 8.5 | – |
| NS(=O)(=O)c1ccc(N2C(=O)CS[C@@H]2c2cccc(F)c2)cc1 [A1295] | 1.725 | – | – | Ki [5]: 53.1 nM |
| NS(=O)(=O)c1ccc(CCNc2nc(N[C@@H](CO)C(=O)O)nc(N[C@H](CO)C(=O)O)n2)cc1 [B0192] | – | 0.954 | 9 | – |
| CC(C)OS(N)(=O)=O [A2163] | – | – | 1000 | – |
